Laboratory results from ChEMBL document CHEMBL1138490, “Gamma-aminobutyric acid amides of nortriptyline and fluoxetine display improved pain suppressing activity” (2009).
Calls of active or inactive are those of the source.

Legend:
Assay type in all cases: functional, organism-based
[1] = test system: Mus musculus; test: Antinociceptive activity against formalin-induced pain in BALB/c mouse assessed paw licking, biting or shaking at 0.5 mg/kg, po administered 2 hrs before formalin challenge measured after 0 to 5 mins relative to control; set-up: dose 0.5 mg/kg
[2] = test system: Mus musculus; test: Antinociceptive activity against formalin-induced pain in BALB/c mouse assessed paw licking, biting or shaking at 0.5 mg/kg, po administered 2 hrs before formalin challenge measured after 25 to 35 mins relative to control; set-up: dose 0.5 mg/kg
[3] = test system: Mus musculus; test: Antinociceptive activity against formalin-induced pain in BALB/c mouse assessed paw licking, biting or shaking at 5 mg/kg, po administered 2 hrs before formalin challenge measured after 0 to 5 mins relative to control; set-up: dose 5 mg/kg
[4] = test system: Mus musculus; test: Antinociceptive activity against formalin-induced pain in BALB/c mouse assessed paw licking, biting or shaking at 5 mg/kg, po administered 2 hrs before formalin challenge measured after 25 to 35 mins relative to control; set-up: dose 5 mg/kg
[5] = test system: Mus musculus; test: Antinociceptive activity against formalin-induced pain in BALB/c mouse assessed paw licking, biting or shaking at 0.5 mg/kg, po equimolar dose of nortriptyline administered 2 hrs before formalin challenge measured after 0 to 5 mins relative to control; set-up: dose 0.5 mg/kg
[6] = test system: Mus musculus; test: Antinociceptive activity against formalin-induced pain in BALB/c mouse assessed paw licking, biting or shaking at 0.5 mg/kg, po equimolar dose of nortriptyline administered 2 hrs before formalin challenge measured after 25 to 35 mins relative to control; set-up: dose 0.5 mg/kg
[7] = test system: Mus musculus; test: Antinociceptive activity against formalin-induced pain in BALB/c mouse assessed paw licking, biting or shaking at 5 mg/kg, po equimolar dose of nortriptyline administered 2 hrs before formalin challenge measured after 0 to 5 mins relative to control; set-up: dose 5 mg/kg
[8] = test system: Mus musculus; test: Antinociceptive activity against formalin-induced pain in BALB/c mouse assessed paw licking, biting or shaking at 5 mg/kg, po equimolar dose of nortriptyline administered 2 hrs before formalin challenge measured after 25 to 35 mins relative to control; set-up: dose 5 mg/kg
[9] = test system: Mus musculus; test: Antiinflammatory activity against formalin-induced BALB/c mouse skin assessed as reduction in TNFalpha level at to 0.5 mg/kg, po; set-up: dose 0.5 mg/kg
[10] = test system: Rattus norvegicus; test: Antiinflammatory activity against gamma carrageenan-induced paw edema in Wistar rat assessed as paw volume at 5 mg/kg, po equimolar dose of nortriptyline administered 2 hrs before carrageenan challenge relative to control; set-up: dose 5 mg/kg
[11] = test system: Mus musculus; test: Antinociceptive activity in BALB/c mouse assessed as […] at 0.25 mg/kg, po after 240 mins by hot plate method; set-up: dose 0.25 mg/kg
[12] = test system: Mus musculus; test: Antinociceptive activity in BALB/c mouse assessed as […] at 4.5 mg/kg, po after 240 mins by hot plate method; set-up: dose 4.5 mg/kg
[13] = test system: Mus musculus; test: Antinociceptive activity in BALB/c mouse assessed as […] at 0.5 mg/kg, po equimolar dose of nortriptyline after 240 mins by hot plate method; set-up: dose 0.5 mg/kg
[14] = test system: Mus musculus; test: Antinociceptive activity in BALB/c mouse assessed as […] at 0.25 mg/kg, po equimolar dose of nortriptyline after 240 mins by hot plate method; set-up: dose 0.25 mg/kg
[15] = test system: Mus musculus; test: Antinociceptive activity in BALB/c mouse assessed as […] at 4.5 mg/kg, po equimolar dose of nortriptyline after 240 mins by hot plate method; set-up: dose 4.5 mg/kg
[16] = test system: Mus musculus; test: Antinociceptive activity in BALB/c mouse assessed as […] at 10 mg/kg, po after 240 mins by hot plate method; set-up: dose 10 mg/kg

Measured: Activity

CNCCC=C1c2ccccc2CCc2ccccc21
not listed: [16]
active: all other assays above

CNCCC(Oc1ccc(C(F)(F)F)cc1)c1ccccc1 (stereo unspecified)
active: [16]
